Test [1] has as its target T1, catalytic domain of human Bub1 (amino acids 704-1085) (Homo sapiens, UniProt O43683).
T1 construct: catalytic domain of human Bub1 (amino acids 704-1085); His6 (N); made in house; host or cells: Hi5 insect cells
Kind of test: Bub1 kinase assay (TR-FRET). In kind it is biochemical. The protocol:
To this end, 100-fold concentrated compound solutions (in DMSO) were previously prepared by serial dilution (1:3.4) of 2 mM stocks in a clear low volume 384-well source microtiter plate (Greiner Bio-One, Frickenhausen, Germany), from which 50 nL of compounds were transferred into a black low volume test microtiter plate from the same supplier. […] The resulting mixture (5 μL final volume) was incubated at 22° C. during 60 min., and the reaction was stopped by the addition of 5 μL of an aqueous EDTA-solution (50 mM EDTA, in 100 mM HEPES pH 7.5 and 0.2% (w/v) bovine serum albumin) which also contained the TR-FRET detection reagents (0.2 μM streptavidin-XL665 [Cisbio Bioassays, Codolet, France] and 1 nM anti-phoshoSerine antibody [Merck Millipore, cat. #35-001] and 0.4 nM LANCE EU-W1024 labeled anti-mouse IgG antibody [Perkin-Elmer, product no. AD0077, alternatively a Terbium-cryptate-labeled anti-mouse IgG antibody from Cisbio Bioassays can be used]). The stopped reaction mixture was further incubated 1 h at 22° C. in order to allow the formation of complexes between peptides and detection reagents. Subsequently, the amount of product was evaluated by measurement of the resonance energy transfer from the Eu-chelate-antibody complex recognizing the Phosphoserine residue to the streptavidin-XL665 bound to the biotin moiety of the peptide.

The test system of a further test is HeLa cell line. Briefly: Proliferation assay (HeLa cell line). The settings on record: Homo sapiens, 96 h, read-out: Biological Assay 2: Proliferation assay (HeLa cell line) median IC50. In kind it is cell-based. The protocol:
Cultivated tumor cells (cells were ordered from ATCC, except HeLa-MaTu and HeLa-MaTu-ADR, which were ordered from EPO-GmbH, Berlin) were plated at a density of 1000 to 5000 cells/well, depending on the growth rate of the respective cell line, in a 96-well multititer plate in 200 μL of their respective growth medium supplemented 10% fetal calf serum. After 24 hours, the cells of one plate (zero-point plate) were stained with crystal violet (see below), while the medium of the other plates was replaced by fresh culture medium (200 μL), to which the test substances were added in various concentrations (0 μM, as well as in the range of 0.001-10 μM; the final concentration of the solvent dimethyl sulfoxide was 0.5%). The cells were incubated for 4 days in the presence of test substances. Cell proliferation was determined by staining the cells with crystal violet: the cells were fixed by adding 20 μL/measuring point of an 11% glutaric aldehyde solution for 15 minutes at room temperature. After three washing cycles of the fixed cells with water, the plates were dried at room temperature. The cells were stained by adding 100 μL/measuring point of a 0.1% crystal violet solution (pH 3.0). After three washing cycles of the stained cells with water, the plates were dried at room temperature. The dye was dissolved by adding 100 μl/measuring point of a 10% acetic acid solution. Absorbtion was determined by photometry at a wavelength of 595 nm. The change of cell number, in percent, was calculated by normalization of the measured values to the absorbtion values of the zero-point plate (=0%) and the absorbtion of the untreated (0 μm) cells (=100%). The IC50 values were determined by means of a 4 parameter fit.

[2] abbreviates: 4 days incubation, crystal violet staining.
The mark [3] stands for this setting: 10 μM ATP, 1 μM peptide substrate, TR-FRET, read-out: Biological Assay 1: Bub1 kinase assay median IC50.

Like-named read-outs stand apart in the source and are kept apart here.

T1 sequence (O43683 704-1085): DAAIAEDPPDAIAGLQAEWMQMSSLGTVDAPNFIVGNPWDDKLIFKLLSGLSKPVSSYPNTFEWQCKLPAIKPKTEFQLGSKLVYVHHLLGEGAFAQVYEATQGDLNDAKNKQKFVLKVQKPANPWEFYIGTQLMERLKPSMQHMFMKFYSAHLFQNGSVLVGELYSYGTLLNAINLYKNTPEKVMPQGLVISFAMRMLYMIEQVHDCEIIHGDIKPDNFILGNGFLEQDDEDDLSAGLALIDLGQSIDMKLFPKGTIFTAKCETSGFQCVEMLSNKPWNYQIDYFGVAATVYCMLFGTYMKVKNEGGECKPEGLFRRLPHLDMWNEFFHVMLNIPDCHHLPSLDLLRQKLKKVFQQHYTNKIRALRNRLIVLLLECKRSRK

`CCOc1cc(F)c(Cn2nc(-c3nc(N)c(NC(=O)COC)c(Nc4ccncn4)n3)c(C)c2C2CC2)c(F)c1` [Example 2-1-28, N-{4-amino-2-[5-cyclopropyl-1-(4-ethoxy-2,6-difluorobenzyl)-4-methyl-1H-pyrazol-3-yl]-6-(pyrimidin-4-ylamino)pyrimidin-5-yl}-2-methoxyacetamide]: the IC50 in test [1] was 13 nM; in the test with HeLa cell line (setting [2]) it was 10000 nM.

With `CCOc1cc(F)c(Cn2nc(-c3nc(N)c(N4CCOCC4)c(Nc4ccncc4)n3)c(C)c2C2CC2)c(F)c1` [Example 2-1-6, 2-[5-cyclopropyl-1-(4-ethoxy-2,6-difluorobenzyl)-4-methyl-1H-pyrazol-3-yl]-5-(morpholin-4-yl)-N-(pyridin-4-yl)pyrimidine-4,6-diamine], the IC50 in test [1] (setting [3]) is 12 nM; in the test on HeLa cell line, 5200 nM.

Turning to `CCOc1cc(F)c(Cn2nc(-c3nc(NC(=O)NC4CCCCC4)c(N4CCOCC4)c(Nc4ccncn4)n3)c(C)c2C2CC2)c(F)c1` [Example 2-1-21, 1-cyclohexyl-3-{2-[5-cyclopropyl-1-(4-ethoxy-2,6-difluorobenzyl)-4-methyl-1H-pyrazol-3-yl]-5-(morpholin-4-yl)-6-(pyrimidin-4-ylamino)pyrimidin-4-yl}urea], the IC50 in test [1] (setting [3]) is 1400 nM; with HeLa cell line it was 7400 nM.

For the compound `C=CC(=O)Nc1cc(Nc2ccncc2)nc(-c2nn(Cc3c(F)cc(OCC)cc3F)c(C3CC3)c2C)n1` [Example 2-1-22, N-{2-[5-cyclopropyl-1-(4-ethoxy-2,6-difluorobenzyl)-4-methyl-1H-pyrazol-3-yl]-6-(pyridin-4-ylamino)pyrimidin-4-yl}prop-2-enamide], the IC50 turned out to be 59 nM in test [1] and 9800 nM in the test with HeLa cell line (setting [2]).

With `CCOc1cc(F)c(Cn2nc(-c3nc(NC(=O)NC4CCCCC4)cc(Nc4ccncc4)n3)c(C)c2C2CC2)c(F)c1` [Example 2-1-12, 1-cyclohexyl-3-{2-[5-cyclopropyl-1-(4-ethoxy-2,6-difluorobenzyl)-4-methyl-1H-pyrazol-3-yl]-6-(pyridin-4-ylamino)pyrimidin-4-yl}urea], the IC50 in test [1] (setting [3]) was 240 nM.

As to `CCOc1cc(F)c(Cn2nc(-c3nc(NC(=O)NC4CCCCC4)cc(Nc4ccncn4)n3)c(C)c2C2CC2)c(F)c1` [Example 2-1-13, 1-cyclohexyl-3-{2-[5-cyclopropyl-1-(4-ethoxy-2,6-difluorobenzyl)-4-methyl-1H-pyrazol-3-yl]-6-(pyrimidin-4-ylamino)pyrimidin-4-yl}urea], the IC50 in test [1] (setting [3]) is 550 nM.

With `CCNC(=O)Nc1nc(-c2nn(Cc3c(F)cc(OCC)cc3F)c(C3CC3)c2C)nc(Nc2ccncn2)c1N1CCOCC1` [Example 2-1-19, 1-{2-[5-cyclopropyl-1-(4-ethoxy-2,6-difluorobenzyl)-4-methyl-1H-pyrazol-3-yl]-5-(morpholin-4-yl)-6-(pyrimidin-4-ylamino)pyrimidin-4-yl}-3-ethylurea], the IC50 came out at 2100 nM in test [1] (setting [3]) and 5600 nM with HeLa cell line.

Consider `CCOc1cc(F)c(Cn2nc(-c3nc(Nc4ccncc4)c(NS(=O)(=O)C(F)(F)F)c(Nc4ccncc4)n3)c(C)c2C2CC2)c(F)c1` [Example 2-2-18, N-{2-[5-cyclopropyl-1-(4-ethoxy-2,6-difluorobenzyl)-4-methyl-1H-pyrazol-3-yl]-4,6-bis(pyridin-4-ylamino)pyrimidin-5-yl}-1,1,1-trifluoromethanesulfonamide], for which the IC50 in test [1] (setting [3]) stood at 13000 nM; in the test on HeLa cell line, 3000 nM.

For the compound `CCOc1cc(F)c(Cn2nc(-c3nc(NC(=O)NC4CCCCC4)c(OC)c(Nc4ccncc4)n3)c(C)c2C2CC2)c(F)c1` [Example 2-1-16, 1-cyclohexyl-3-{2-[5-cyclopropyl-1-(4-ethoxy-2,6-difluorobenzyl)-4-methyl-1H-pyrazol-3-yl]-5-methoxy-6-(pyridin-4-ylamino)pyrimidin-4-yl}urea], the values for the IC50 (in test [1]; in the test with HeLa cell line (setting [2])) were 340 nM and 3300 nM, respectively.

Take `CCOc1cc(F)c(Cn2nc(-c3nc(Nc4ccncc4)c(NS(=O)(=O)CC)c(Nc4ccncc4)n3)c(C)c2C2CC2)c(F)c1` [Example 2-2-17, N-{2-[5-cyclopropyl-1-(4-ethoxy-2,6-difluorobenzyl)-4-methyl-1H-pyrazol-3-yl]-4,6-bis(pyridin-4-ylamino)pyrimidin-5-yl}ethanesulfonamide]: the IC50 was 760 nM in test [1] (setting [3]) and > 10000 nM in the test with HeLa cell line.

`CCOc1cc(F)c(Cn2nc(-c3nc(NC(=O)NC4CCCCC4)c(N4CCOCC4)c(Nc4ccncc4)n3)c(C)c2C2CC2)c(F)c1` [Example 2-1-20, 1-cyclohexyl-3-{2-[5-cyclopropyl-1-(4-ethoxy-2,6-difluorobenzyl)-4-methyl-1H-pyrazol-3-yl]-5-(morpholin-4-yl)-6-(pyridin-4-ylamino)pyrimidin-4-yl}urea]: the figures for the IC50 (in test [1]; with HeLa cell line (setting [2])) were 920 nM and 3300 nM, respectively.

Take `CCOc1cc(F)c(Cn2nc(-c3nc(Nc4ccncc4)nc(Nc4ccncc4)n3)c(C)c2C2CC2)c(F)c1` [Example 2-2-8, 6-[5-cyclopropyl-1-(4-ethoxy-2,6-difluorobenzyl)-4-methyl-1H-pyrazol-3-yl]-N,N′-di(pyridin-4-yl)-1,3,5-triazine-2,4-diamine]: in test [1], the IC50 amounted to 67 nM.

With `CCOc1cc(F)c(Cn2nc(-c3nc(N)c(NC(=O)COC)c(Nc4ccncc4)n3)c(C)c2C2CC2)c(F)c1` [Example 2-1-27, N-{4-amino-2-[5-cyclopropyl-1-(4-ethoxy-2,6-difluorobenzyl)-4-methyl-1H-pyrazol-3-yl]-6-(pyridin-4-ylamino)pyrimidin-5-yl}-2-methoxyacetamide], the results for the IC50 (in test [1] (setting [3]); with HeLa cell line) were 16 nM and > 10000 nM, respectively.

`CCOc1cc(F)c(Cn2nc(-c3nc(N)c(OCCOC)c(Nc4ccncc4)n3)c(C)c2C2CC2)c(F)c1` [Example 2-1-25, 2-[5-cyclopropyl-1-(4-ethoxy-2,6-difluorobenzyl)-4-methyl-1H-pyrazol-3-yl]-5-(2-methoxyethoxy)-N-(pyridin-4-yl)pyrimidine-4,6-diamine]: the IC50 in test [1] (setting [3]) came to 10 nM; in the test with HeLa cell line it was 3000 nM.

With `CCOc1cc(F)c(Cn2nc(-c3nc(Nc4ccnc(OC)c4)cc(Nc4ccnc(OC)c4)n3)c(C)c2C2CC2)c(F)c1` [Example 2-2-2, 2-[5-cyclopropyl-1-(4-ethoxy-2,6-difluorobenzyl)-4-methyl-1H-pyrazol-3-yl]-N,N′-bis(2-methoxypyridin-4-yl)pyrimidine-4,6-diamine], the IC50 in test [1] was ≥ 20000 nM.

For `CCOc1cc(F)c(Cn2nc(-c3nc(Nc4ccncn4)c(N4CCOCC4)c(Nc4ccncn4)n3)c(C)c2C2CC2)c(F)c1` [Example 2-2-7, 2-[5-cyclopropyl-1-(4-ethoxy-2,6-difluorobenzyl)-4-methyl-1H-pyrazol-3-yl]-5-(morpholin-4-yl)-N,N′-di(pyrimidin-4-yl)pyrimidine-4,6-diamine], in test [1], the IC50 was 140 nM.

Consider `CCOc1cc(F)c(Cn2nc(-c3nc(Nc4ccnnc4)nc(Nc4ccnnc4)n3)c(C)c2C2CC2)c(F)c1` [Example 2-2-11, 6-[5-cyclopropyl-1-(4-ethoxy-2,6-difluorobenzyl)-4-methyl-1H-pyrazol-3-yl]-N,N′-di(pyridazin-4-yl)-1,3,5-triazine-2,4-diamine], for which, in test [1], the IC50 stood at 5500 nM.

Regarding `CCOc1cc(F)c(Cn2nc(-c3nc(Nc4ccncc4)c(OC)c(Nc4ccncc4)n3)c(C)c2C2CC2)c(F)c1` [Example 2-2-4, 2-[5-cyclopropyl-1-(4-ethoxy-2,6-difluorobenzyl)-4-methyl-1H-pyrazol-3-yl]-5-methoxy-N,N′-di(pyridin-4-yl)pyrimidine-4,6-diamine], in test [1] (setting [3]), the IC50 stood at 310 nM.

Take `CCNC(=O)Nc1nc(-c2nn(Cc3c(F)cc(OCC)cc3F)c(C3CC3)c2C)nc(Nc2ccncn2)c1OC` [Example 2-1-15, 1-{2-[5-cyclopropyl-1-(4-ethoxy-2,6-difluorobenzyl)-4-methyl-1H-pyrazol-3-yl]-5-methoxy-6-(pyrimidin-4-ylamino)pyrimidin-4-yl}-3-ethylurea]: the IC50 in test [1] (setting [3]) was 340 nM.

(Values after patent publication US20160145267A1, “HETEROARYL SUBSTITUTED PYRAZOLES” (BAYER PHARMA AKTIENGESELLSCHAFT, priority 2013, published 2016).)
